Measurements published in the supplement of paper PMC11061612.

Tests used:
[1] = system: RO82-W-1 (Thyroid Gland Carcinoma); assay: combination Emax (second highest fraction inhibited in the dose matrix, 72 h); higher = more inhibition; extreme values may be limits of the assay
Procedure, shortened: (§1)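 Bliss excess equals the observed combination effect minus the expected value EA + EB − EA·EB, where EA and EB are the effects of each agent alone. Combination Emax is the second-highest inhibition within the matrix. Inhibition was scaled from CellTiter-Glo 2.0 luminescence, with 0 set by vehicle wells and 1 by blank wells, after 72 hours of two-drug dosing of cells plated in 1536-well plates.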

[2] = system: HCC-78 (Lung Adenocarcinoma); assay: as above
Procedure, shortened: as §1

[3] = system: CaR-1 (Colorectal Carcinoma); assay: as above
Procedure, shortened: as §1

[4] = system: MDA-MB-361 (Breast Carcinoma); assay: as above
Procedure, shortened: as §1

[5] = system: Daoy (Other Solid Carcinomas); assay: as above
Procedure, shortened: as §1

[6] = system: LNCaP-Clone-FGC (Prostate Carcinoma); assay: as above
Procedure, shortened: as §1

[7] = system: SK-ES-1 (Ewing's Sarcoma); assay: as above
Procedure, shortened: as §1

[8] = system: KURAMOCHI (Ovarian Carcinoma); assay: as above
Procedure, shortened: as §1

[9] = system: HO-1-N-1 (Oral Cavity Carcinoma); assay: as above
Procedure, shortened: as §1

KELLY (Neuroblastoma) = assay: as above
Procedure, shortened: as §1

[10] = system: B-CPAP (Thyroid Gland Carcinoma); assay: as above
Procedure, shortened: as §1

[11] = system: KP-1N (Pancreatic Carcinoma); assay: as above
Procedure, shortened: as §1

[12] = system: NCI-H82 (Small Cell Lung Carcinoma); assay: as above
Procedure, shortened: as §1

[13] = system: NCI-H2085 (Non-Small Cell Lung Carcinoma); assay: as above
Procedure, shortened: as §1

[14] = system: CAL-148 (Breast Carcinoma); assay: Bliss excess, mean over the matrix (fraction); higher = more synergy
Procedure, shortened: as §1

[15] = system: EC-GI-10 (Esophageal Squamous Cell Carcinoma); assay: as above
Procedure, shortened: as §1

[16] = system: KYSE-520 (Esophageal Squamous Cell Carcinoma); assay: as above
Procedure, shortened: as §1

[17] = system: HO-1-N-1 (Oral Cavity Carcinoma); assay: as above
Procedure, shortened: as §1

[18] = system: TE-9 (Esophageal Squamous Cell Carcinoma); assay: as above
Procedure, shortened: as §1

[19] = system: DEL (T-Cell Non-Hodgkin's Lymphoma); assay: as above
Procedure, shortened: as §1

Row | Structure (SMILES) | combination Emax [1] | combination Emax [2] | combination Emax [3] | combination Emax [4] | combination Emax [5] | combination Emax [6] | combination Emax [7] | combination Emax [8] | combination Emax [9] | combination Emax (KELLY (Neuroblastoma)) | combination Emax [10] | combination Emax [11] | combination Emax [12] | combination Emax [13] | Bliss excess [14] | Bliss excess [15] | Bliss excess [16] | Bliss excess [17] | Bliss excess [18] | Bliss excess [19]
1 | COc1nnc2ccc(N3CCC(c4ccc(OCCN5CCN(C)C(=O)[C@H]5C)cc4)CC3)nn12 [AZD5153] + CC1(C)CCC(CN2CCN(c3ccc(C(=O)NS(=O)(=O)c4ccc(NCC5CCOCC5)c([N+](=O)[O-])c4)c(Oc4cnc5[nH]ccc5c4)c3)CC2)=C(c2ccc(Cl)cc2)C1 [Venetoclax] (first compound max 1 µM, 7x7, partner max 1 µM) | 0.407 | 0.411 | 0.384 | 0.443 | 0.487 | 0.743 | 0.579 | 0.747 | 0.682 | 0.367 | 0.622 | 0.481 | 0.467 | 0.404 | -0.0682 | -0.118 | -0.0444 | -0.095 | -0.0599 | -0.0559
2 | COc1nnc2ccc(N3CCC(c4ccc(OCCN5CCN(C)C(=O)[C@H]5C)cc4)CC3)nn12 [AZD5153] + CCN(CCO)CCCOc1ccc2c(Nc3cc(CC(=O)Nc4cccc(F)c4)[nH]n3)ncnc2c1 [AZD2811] (first compound max 1 µM, 7x7, partner max 1 µM) | 0.402 | 0.489 | 0.367 | 0.49 | 0.606 | 0.743 | 0.941 | 0.738 | 0.815 | 0.724 | 0.645 | 0.542 | 0.481 | 0.484 | -0.0361 | -0.0142 | -0.0709 | -0.0014 | -0.0096 | -0.0462
3 | COc1nnc2ccc(N3CCC(c4ccc(OCCN5CCN(C)C(=O)[C@H]5C)cc4)CC3)nn12 [AZD5153] + C[C@@H]1COCCN1C2=NC(=NC(=C2)C3(CC3)[S@](=N)(=O)C)C4=C5C=CNC5=NC=C4 [AZD6738] (first compound max 1 µM, 7x7, partner max 10 µM) | 0.398 | 0.517 | 0.518 | 0.82 | 0.835 | 0.791 | 0.929 | 0.826 | 0.795 | 0.983 | 0.72 | 0.69 | 0.878 | 0.653 | 0.0315 | 0.0203 | -0.0009 | 0.01 | 0.0039 | 0.0007
4 | COc1nnc2ccc(N3CCC(c4ccc(OCCN5CCN(C)C(=O)[C@H]5C)cc4)CC3)nn12 [AZD5153] + Cc1c2c(nn1C)CSCc1cc(n(C)n1)CSc1cc(c3ccccc3c1)OCCCc1c(C(=O)O)n(C)c3c-2c(Cl)ccc13 [AZD5991] (first compound max 1 µM, 7x7, partner max 1 µM) | 0.411 | 0.522 | 0.434 | 0.865 | 0.801 | 0.772 | 0.948 | 0.927 | 0.991 | 0.993 | 0.706 | 0.582 | 0.968 | 0.64 | 0.0117 | 0.0527 | -0.0457 | 0.0068 | -0.007 | -0.0475
5 | COc1nnc2ccc(N3CCC(c4ccc(OCCN5CCN(C)C(=O)[C@H]5C)cc4)CC3)nn12 [AZD5153] + Cn1cnc2c(F)c(Nc3ccc(Br)cc3Cl)c(C(=O)NOCCO)cc21 [Selumetinib] (first compound max 1 µM, 7x7, partner max 10 µM) | 0.456 | 0.451 | 0.619 | 0.642 | 0.598 | 0.728 | 0.579 | 0.707 | 0.773 | 0.645 | 0.603 | 0.563 | 0.378 | 0.563 | 0.0129 | 0.0858 | 0.0018 | 0.0226 | -0.0161 | -0.0896
6 | Cc1c2c(nn1C)CSCc1cc(n(C)n1)CSc1cc(c3ccccc3c1)OCCCc1c(C(=O)O)n(C)c3c-2c(Cl)ccc13 [AZD5991] + C=CCn1c(=O)c2cnc(Nc3ccc(N4CCN(C)CC4)cc3)nc2n1-c1cccc(C(C)(C)O)n1 [AZD1775] (first compound max 1 µM, partner max 1 µM) | 0.506 | 0.331 | 0.283 | 0.899 | 0.979 | 0.769 | 0.985 | 0.796 | 0.812 | 1 | 0.467 | 0.458 | 0.966 | 0.626 | 0.0567 | 0.0389 | 0.0434 | -0.0348 | 0.0286 | -0.0201
7 | Cc1c2c(nn1C)CSCc1cc(n(C)n1)CSc1cc(c3ccccc3c1)OCCCc1c(C(=O)O)n(C)c3c-2c(Cl)ccc13 [AZD5991] + CC1(C)CCC(CN2CCN(c3ccc(C(=O)NS(=O)(=O)c4ccc(NCC5CCOCC5)c([N+](=O)[O-])c4)c(Oc4cnc5[nH]ccc5c4)c3)CC2)=C(c2ccc(Cl)cc2)C1 [Venetoclax] (first compound max 1 µM, 7x7, partner max 1 µM) | 0.255 | 0.158 | 0.144 | 0.889 | 0.425 | 0.228 | 1 | 0.501 | 0.979 | 0.999 | 0.18 | 0.119 | 0.914 | 0.783 | -0.0177 | -0.0024 | -0.0306 | 0.0055 | 0.0041 | 0.0081
8 | Cc1c2c(nn1C)CSCc1cc(n(C)n1)CSc1cc(c3ccccc3c1)OCCCc1c(C(=O)O)n(C)c3c-2c(Cl)ccc13 [AZD5991] + CCN(CCO)CCCOc1ccc2c(Nc3cc(CC(=O)Nc4cccc(F)c4)[nH]n3)ncnc2c1 [AZD2811] (first compound max 1 µM, 7x7, partner max 1 µM) | 0.274 | 0.31 | 0.338 | 0.913 | 0.505 | 0.33 | 1 | 0.376 | 0.993 | 0.896 | 0.313 | 0.234 | 0.972 | 0.863 | 0.0597 | 0.156 | -0.0272 | 0.0237 | -0.0235 | -0.0295
9 | Cc1c2c(nn1C)CSCc1cc(n(C)n1)CSc1cc(c3ccccc3c1)OCCCc1c(C(=O)O)n(C)c3c-2c(Cl)ccc13 [AZD5991] + CN(C)CCCOc1ccc(-c2ccc3ncc4c(c3c2)n(C2CCOCC2)c(=O)n4C)cn1 [AZD0156] (first compound max 1 µM, 7x7, partner max 1 µM) | 0.265 | 0.211 | 0.186 | 0.791 | 0.223 | 0.429 | 0.817 | 0.359 | 0.771 | 0.741 | 0.237 | 0.229 | 0.941 | 0.219 | 0.0528 | 0.0487 | 0.0045 | -0.0044 | -0.0529 | -0.0174
10 | Cc1c2c(nn1C)CSCc1cc(n(C)n1)CSc1cc(c3ccccc3c1)OCCCc1c(C(=O)O)n(C)c3c-2c(Cl)ccc13 [AZD5991] + C[C@@H]1COCCN1C2=NC(=NC(=C2)C3(CC3)[S@](=N)(=O)C)C4=C5C=CNC5=NC=C4 [AZD6738] (first compound max 1 µM, 7x7, partner max 10 µM) | 0.525 | 0.544 | 0.362 | 0.962 | 0.945 | 0.688 | 1 | 0.634 | 0.928 | 0.991 | 0.522 | 0.279 | 0.99 | 0.52 | 0.0584 | 0.061 | 0.0162 | -0.0134 | -0.0039 | 0.004
11 | Cc1c2c(nn1C)CSCc1cc(n(C)n1)CSc1cc(c3ccccc3c1)OCCCc1c(C(=O)O)n(C)c3c-2c(Cl)ccc13 [AZD5991] + C[C@@H](Nc1cc(F)cc(F)c1)c1cc(C(=O)N(C)C)cc2c(=O)cc(N3CCOCC3)oc12 [AZD8186] (first compound max 1 µM, 7x7, partner max 3 µM) | 0.367 | 0.413 | 0.174 | 0.806 | 0.391 | 0.894 | 0.866 | 0.404 | 0.933 | 0.726 | 0.227 | 0.274 | 0.905 | 0.691 | -0.0338 | 0.0109 | -0.0258 | 0.0943 | -0.0274 | 0.0058
12 | Cc1c2c(nn1C)CSCc1cc(n(C)n1)CSc1cc(c3ccccc3c1)OCCCc1c(C(=O)O)n(C)c3c-2c(Cl)ccc13 [AZD5991] + Cc1cc2ncnn2cc1Nc1ncc2c(n1)n(C1CCOCC1)c(=O)n2C [AZD7648] (first compound max 1 µM, 7x7, partner max 10 µM) | 0.376 | 0.339 | 0.277 | 0.816 | 0.244 | 0.42 | 0.813 | 0.331 | 0.794 | 0.768 | 0.365 | 0.279 | 0.927 | 0.244 | -0.0121 | -0.0555 | -0.0595 | -0.0039 | 0.0162 | 0.0005
13 | Cc1c2c(nn1C)CSCc1cc(n(C)n1)CSc1cc(c3ccccc3c1)OCCCc1c(C(=O)O)n(C)c3c-2c(Cl)ccc13 [AZD5991] + Cn1cnc2c(F)c(Nc3ccc(Br)cc3Cl)c(C(=O)NOCCO)cc21 [Selumetinib] (first compound max 1 µM, 7x7, partner max 3 µM) | 0.311 | 0.253 | 0.168 | 0.816 | 0.278 | 0.129 | 0.809 | 0.485 | 0.919 | 0.737 | 0.299 | 0.189 | 0.922 | 0.631 | 0.0184 | 0.051 | -0.0208 | 0.0303 | -0.0097 | 0.0049
